Key:
[1] = tested on: Maize DKC2931; test: Long-term maize pot experiment, DKC2931 (PHENOVISION); type: in vivo, maize cultivar DKC 2931
Procedure: Regular Arabidopsis, soybean and maize pot experiments used an unfertilized potting soil, which was supplemented at the start of the experiment with 50 ml H2O containing 0.25 g/l NH4NO3 and 0.44 g/l (high phosphate) or no (maize and soybean) or 0.11 g/l KH2PO (Arabidopsis) for low phosphate conditions. For the sand-based maize pot experiment, sand was supplemented with 50 ml H2O containing 0.25 g/l NH4NO3 and 0.38 g/l (high phosphate) or 0.02 g/l (low phosphate) KH2PO4. Potassium was balanced via addition of KCl. Compound concentration was 10 μM, calculated based on the total water content after watering, and was added at the start of the experiment (Arabidopsis) or once a week (maize). Indexed chlorophyll contents were received via a SPAD 502 Plus Chlorophyll Meter. All parameters in the sand experiment, except the rate of leaf 4 (measured the first 4 days after emergence), were measured 19 days after sowing. Measurements in the pot experiments with potting soil were done after 4 weeks of growth, except for leaf 5, which was measured at 26 days. One long-term maize pot experiment was conducted with the DKC 2931 (2.5 months) and B104 (3 months) cultivars on the PHENOVISION phenotyping platform as described in Frontiers in Plant Science 2021, 12: 640914, except that an unfertilized potting soil was used and that plants were fertilized with a low-phosphate Hoagland solution. The 2.5× overconcentrated low-phosphate Hoagland solution contained 0.034 g/l KH2PO and 200 mL of this solution was applied twice a week. 1.4 mL of a 10 mM compound solution was added each two weeks to each pot, corresponding to 9.6 mg/g nutrients. 13 plants per condition were used. During the experiment, pictures were taken twice a week for each plants from 6 different angles and the top. Pictures were used to extract the plant height and to extract the projected plant area from each side and calculate an estimated plant volume over time.

[2] = tested on: Arabidopsis; test: Anthocyanin quantification, Arabidopsis 96-well plate; type: in vivo, Arabidopsis thaliana; details: low phosphate, 50 μM, 7 days after germination, control = 1
Procedure: Col-0 ecotype Arabidopsis seeds were sown in 96-well plates containing 150 μl of low phosphate modMS liquid medium containing 1% of sucrose. Compounds was added in 50 μM concentration (1% DMSO). Eight plants per repeat were collected 7 days after germination and put into a fresh Eppendorf. Extraction and quantification of anthocyanin levels was carried out according to The Plant cell 2013, 25:1641-1656. Anthocyanin levels were quantified by measuring absorption at 530 and 657 nm using a spectrophotometer and normalized to fresh weight input, and expressed relative to the low phosphate control. For pot experiments, the same procedure was followed with one 4-week old plant per sample.

[3] = tested on: Arabidopsis; test: Arabidopsis horizontal plate leaf area assay; type: in vivo, Arabidopsis thaliana; details: 21 days after germination
Procedure: (§1) All Arabidopsis plant experiments were performed using the Arabidopsis thaliana Columbia-0 background. The Arabidopsis pSPX1::GUS line is described in the Plant Journal 2008, 54: 965-975. For rice, the cultivar Nipponbare was used. For maize, the cultivars DKC 2931 and B104 were used for regular pot experiments and sand-based pot experiments, respectively. For soybean, the cultivar Primus was used. […] The medium was solidified due to the addition of 0.6% Gelrite, unless stated otherwise. […]
(§2) Arabidopsis primary root growth experiments were done on MS1/2 on vertical standing plates and roots were measured 11 days after germination. Roots were imaged using a flatbed scanner (EPSON Expression 11000XL) and root length was measured using ImageJ software. Arabidopsis shoot biomass was determined in 11 days after germination and growth on vertical standing plates with modMS. Arabidopsis leaf area was measured 21 days after germination on horizontal plates with modMS medium. Plates were scanned from the top using a flatbed scanner (EPSON Expression 11000XL) and the visible leaf area was measured using ImageJ software. […] Plant height was measured 11 days after germination. […] Plant height was measured 13 days after germination. […]

[4] = tested on: Rice; test: Rice box experiment; type: in vivo, rice cultivar Nipponbare; details: low phosphate 0.025 mM, 10 μM, 13 days after germination, control 1.1
Procedure: as §1, §2

Compound `CC1CN(CC(=O)c2c(N)n(C)c(=O)n(C)c2=O)c2ccccc2O1` (stereo not drawn) [Compound 8, 6-amino-1,3-dimethyl-5-[2-(2-methyl-2,3-dihydro-1,4-benzoxazin-4-yl)acetyl]pyrimidine-2,4-dione] has a Plant height ([1]; DKC2931, day 15, control 288) of 297 mm, an Estimated volume ([1]; DKC2931, day 15, control 361) of 393 cm^3 and a Plant height ([1]; DKC2931, day 19, control 352) of 368 mm. It also gave an Estimated volume ([1]; DKC2931, day 19, control 576) of 763 cm^3, a Plant height ([1]; DKC2931, day 22, control 335) of 372 mm and an Estimated volume ([1]; DKC2931, day 22, control 843) of 1104 cm^3. The Plant height ([1]; DKC2931, day 26, control 378) was 452 mm, the Estimated volume ([1]; DKC2931, day 26, control 1145) was 1646 cm^3 and the Plant height ([1]; DKC2931, day 27, control 352) was 460 mm. It also gave an Estimated volume ([1]; DKC2931, day 27, control 1086) of 1826 cm^3, a Plant height ([1]; DKC2931, day 29, control 399) of 471 mm and an Estimated volume ([1]; DKC2931, day 29, control 1581) of 2187 cm^3. For the same compound, the Plant height ([1]; DKC2931, day 33, control 424) was 553 mm, the Estimated volume ([1]; DKC2931, day 33, control 2272) was 3213 cm^3 and the Plant height ([1]; DKC2931, day 36, control 531) was 634 mm. For the same compound, the Estimated volume ([1]; DKC2931, day 36, control 2854) was 3881 cm^3, the Plant height ([1]; DKC2931, day 40, control 578) was 694 mm and the Estimated volume ([1]; DKC2931, day 40, control 3872) was 5092 cm^3. For the same compound, the Plant height ([1]; DKC2931, day 43, control 655) was 756 mm, the Estimated volume ([1]; DKC2931, day 43, control 4240) was 5538 cm^3 and the Plant height ([1]; DKC2931, day 47, control 732) was 799 mm. It also gave an Estimated volume ([1]; DKC2931, day 47, control 4988) of 6770 cm^3, a Plant height ([1]; DKC2931, day 50, control 777) of 844 mm and an Estimated volume ([1]; DKC2931, day 50, control 5718) of 7419 cm^3. The Plant height ([1]; DKC2931, day 54, control 562) was 652 mm, the Estimated volume ([1]; DKC2931, day 54, control 6325) was 8086 cm^3 and the Plant height ([1]; DKC2931, day 57, control 678) was 894 mm. For the same compound, the Estimated volume ([1]; DKC2931, day 57, control 6295) was 7681 cm^3, the Plant height ([1]; DKC2931, day 61, control 893) was 1021 mm and the Estimated volume ([1]; DKC2931, day 61, control 6047) was 7458 cm^3. It also gave a Plant height ([1]; DKC2931, day 63, control 811) of 880 mm, an Estimated volume ([1]; DKC2931, day 63, control 5546) of 6642 cm^3 and a Plant height ([1]; DKC2931, day 68, control 849) of 895 mm. The Estimated volume ([1]; DKC2931, day 68, control 4292) was 4967 cm^3, the Plant height ([1]; DKC2931, day 71, control 856) was 916 mm and the Estimated volume ([1]; DKC2931, day 71, control 4022) was 4807 cm^3. The Plant height ([1]; DKC2931, day 75, control 798) was 903 mm, the Estimated volume ([1]; DKC2931, day 75, control 3778) was 4587 cm^3 and the “Average number of ears” value ([1]; Maize pot long term DKC2931, 2.5 months, low phosphate, control 1) was 1. The Shoot weight ([1]; Maize pot long term DKC2931, low phosphate, control 27) was 33 g, the “Leaf 6” value ([1]; Maize pot long term DKC2931, low phosphate, control 53) was 58 cm and the Relative anthocyanin level [2] was 0.6. The Leaf area ([3]; low phosphate, 10 μM, control 78) was 106 mm^2, the “Leaf area in sub-optimal phosphate conditions” value ([3]; sub-optimal phosphate, control 104) was 143 mm^2 and the Plant height [4] was 3.1 cm.

— US20240206469A1, “PHOSPHORUS USE EFFICIENCY ENHANCERS AS PLANT GROWTH PROMOTORS” (EUROCHEM ANTWERPEN, priority 2021, published 2024)
